Patent US7173063B1, “Topoisomerase poisons for the treatment of proliferative disorders” (Fred Hutchinson Cancer Research Center, priority 2000, dated 2007)
Read-outs that look alike come from different tables or passages of the source.

Key:
ACHN, SW620, A549, MDA-N = experiment: Thymidine incorporation toxicity assay in four cancer derived cell lines; type: cell-based, human; conditions: for correlation between MDR1 activity and toxicity/sensitivity: A549, SW620, ACHN (MDR1 10, 31, 120); for toxicity in human cancer and vertebrate cells: FIG. 4
Experimental: Cell lines were grown at 37° C. in an atmosphere of 5% CO2. The chicken pre-B cell line DT40 and its derivatives (Bezzubova, et al., Cell 89: 185–93 (1997), Takata, et al., EMBO Journal 17: 5497–508 (1998), Yamaguchi-Iwai, et al., Molecular & Cellular Biology 18: 6430–5 (1998)) were grown in RPMI containing 10% fetal calf serum and 1% chicken serum. The remaining cell lines were grown in DMEM with 10% fetal calf serum.
Toxicity assays in mammalian cell lines were performed using tritiated thymidine incorporation as a measure of the number of viable cells. […] Drug toxicity was measured as follows:
Cells were plated at a density of 500 cells per well in opaque 96 well plates (Packard) in a volume of 135 μL per well of the appropriate media. The plates were incubated overnight to allow cell adherence. Seven two-fold dilutions of the test compounds were added in a volume of 15 μL per well in triplicate, and 15 μL of media containing an appropriate concentration of DMSO was added to control wells in triplicate. Plates were incubated at 37° C. for 96 hours. The media was then replaced with 100 μL per well of the appropriate media containing 2 μCi/mL of (methyl-^3H) thymidine (Amersham Pharmacia Biotech), then plates were incubated for a further 24 hours at 37° C. Cells were washed three times with PBS, then 100 μL per well of scintillant was added (Microscint 20, Packard), and sealed plates were counted in a microplate reader (Packard Topcount). For suspension chicken cells, (methyl-^3H) thymidine was added directly to the drug-containing media at a concentration of 20 μCi/mL (comprising one tenth of the media volume) and incubated overnight. The suspension cells were transferred to a UniFilter GF/C plate (Packard) and washed with PBS in a plate washer (Packard). After drying, 25 μL per well of scintillant (Microscint 20, Packard) was added, and sealed plates were counted. Toxicity is expressed as a percentage of the control counts. For experiments involving shorter exposures to compounds, cells were grown in the presence of compound for the appropriate time, then the media was replaced with fresh drug-free media, and incubation continued for the remainder of 96 hours, followed by the normal tritiated thymidine uptake and washing protocol.
A common mechanism of tumor resistance to chemotherapeutic agents is overexpression of the drug efflux protein MDR1 (Kane, et al., Advances in Drug Research 28: 182–252 (1996), Nooter, et al., Leukemia Research 18: 233–43 (1994)). MDR1 is overexpressed in many tumor derived cell lines (for instance see http://dtp.nci.nih.gov/), and its overexpression inversely correlates with sensitivity to certain compounds (Kane, et al., Advances in Drug Research 28: 182–252 (1996)).

[1] = tested on: DSB repair defective rad50 and rad52 strains of Saccharomyces cerevisiae; type: cell-based; conditions: for toxicity in wild-type strains: highest concentration used
From the text: The strains are derived from the A364a genetic background, with the exception of BY4705, which is derived from the S288C background. Gene disruptions were generated by PCR fragment directed replacement (Baudin, et al., Nucleic Acids Research 21: 3329–30 (1993), Guldener, et al., Nucleic Acids Research 24: 2519–24 (1996)). Yeast overexpressing topoisomerase II was constructed by a PCR fragment directed promoter replacement of the topoisomerase II promoter with the yeast GPD promoter flanked upstream by the URA3 marker. All strains (except BY4705) bear the pleitropic drug sensitizing mutations erg6, pdr1, and pdr3 (Balzi, et al., Journal of Bioenergetics & Biomembranes 27: 71–6 (1995), Delaveau, et al, Molecular & General Genetics 244: 501–11 (1994), Gaber, et al., Molecular & Cellular Biology 9: 3447–56 (1989), Saunders, et al., Canadian Journal of Genetics & Cytology, 24: 493–503 (1982). Subik, et al, Current Genetics 10: 665–70 (1986)). The haploid yeast strain BY4705 (Brachmann, et al., Yeast 14: 115–32 (1998)) was used in the experiments described in FIG. 5. Plasmids expressing yeast or human topoisomerase I genes under the GAL promoter (Knab, et al., Journal of Biological Chemistry 268: 22322–30 (1993). Knab, et al., Journal of Biological Chemistry 270: 6141–8 (1995)) were transformed into BY4705 using standard procedures.
Yeast toxicity assays were performed essentially as follows: Exponentially growing cultures of the appropriate strains were diluted in synthetic complete media to a concentration of 7.4×10^4 cells/mL, and aliquots (135 μL) were transferred to each well of clear flat-bottomed 96 well plates. Compounds were added in duplicate or triplicate as 15 μL of the appropriate dilution in 5% DMSO. A 15 μL portion of 5% DMSO was added to control wells. […] Cell growth (OD660) in treated wells was plotted as a percentage of the growth in at least four averaged solvent control wells for the same strain. Camptothecin sodium salt (camptothecin Na) was the agent used in all yeast assays as standard.

purified Topo I = target: T1, purified Topo I (Homo sapiens, UniProt P11387); experiment: In vitro assay for DNA strand-break formation in the presence of purified Topo I; type: biochemical; conditions: purified Topo I, in vitro; data not shown
T1 sequence (P11387 1-765): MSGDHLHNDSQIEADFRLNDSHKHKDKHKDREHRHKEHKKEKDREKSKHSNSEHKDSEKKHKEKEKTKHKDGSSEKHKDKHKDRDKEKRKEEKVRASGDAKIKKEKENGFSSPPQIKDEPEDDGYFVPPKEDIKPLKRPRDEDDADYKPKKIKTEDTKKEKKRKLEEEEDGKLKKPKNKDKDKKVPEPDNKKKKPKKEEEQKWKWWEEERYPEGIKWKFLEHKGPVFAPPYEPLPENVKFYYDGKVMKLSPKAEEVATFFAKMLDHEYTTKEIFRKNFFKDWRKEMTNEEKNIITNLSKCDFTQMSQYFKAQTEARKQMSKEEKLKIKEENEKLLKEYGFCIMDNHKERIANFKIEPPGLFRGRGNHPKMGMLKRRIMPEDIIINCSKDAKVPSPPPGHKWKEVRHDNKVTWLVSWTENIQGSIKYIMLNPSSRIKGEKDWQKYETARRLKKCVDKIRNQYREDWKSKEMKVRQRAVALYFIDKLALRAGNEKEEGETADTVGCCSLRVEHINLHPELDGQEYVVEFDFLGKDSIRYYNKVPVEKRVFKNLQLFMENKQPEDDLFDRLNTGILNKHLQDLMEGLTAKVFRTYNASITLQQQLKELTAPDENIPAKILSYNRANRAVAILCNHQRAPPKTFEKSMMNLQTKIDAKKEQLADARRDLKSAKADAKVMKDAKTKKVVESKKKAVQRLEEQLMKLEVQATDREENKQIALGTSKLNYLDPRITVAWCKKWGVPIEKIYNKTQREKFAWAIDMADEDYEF

[2] = Cell based assays (toxicity, unspecified)
[3] = relative growth (OD660) vs solvent control

Row | Structure (SMILES) | relative sensitivity of ACHN and A549 (ACHN, SW620, A549, MDA-N) | correlation between MDR1 activity and toxicity/sensitivity (ACHN, SW620, A549, MDA-N) | toxicity in human cancer and vertebrate cells (ACHN, SW620, A549, MDA-N) | cell line against which most effective (ACHN, SW620, A549, MDA-N; four tumor derived cell lines) | toxicity in wild-type strains [1] | profile of selective toxicity: toxic to rad50 and rad52 strains, not toxic in rad14 or rad18 strains [1, 3] | strand-break induction (purified Topo I) | IC50 compared to camptothecin [2] | differences in toxicity between the cell lines (ACHN, SW620, A549, MDA-N; four tumor derived cell lines) | influence of sensitizing mutations erg6 pdr1 and pdr3 on yeast sensitivity [1] | profile of selective toxicity: toxic to rad50 and rad52 strains, not toxic in rad14 or rad18 strains [1]
1 | O=c1c(Cl)c(Cl)cnn1CCCl [compound IIa] | ACHN is more sensitive than A549 | No correlation | toxic in human cancer and vertebrate cells | most effective against the colon carcinoma derived cell line SW620 | neither compounds Ia or IIa produce toxicity | fit the profile for selective toxicity | did not detect strand-break induction | higher IC50's |  |  | 
2 | O=C(CCl)Nc1ccc(C(=O)N/N=C/c2ccc(Cl)cc2)cc1 [compound Ia] |  | No correlation | toxic in human cancer and vertebrate cells | most effective against the colon carcinoma derived cell line SW620 | neither compounds Ia or IIa produce toxicity | fit the profile for selective toxicity | did not detect strand-break induction | higher IC50's | no significant differences in toxicity | strongly influenced | 
3 | CC(=O)[C@]1(O)Cc2c(O)c3c(c(O)c2[C@@H](O[C@H]2C[C@H](N)[C@H](O)[C@H](C)O2)C1)C(=O)c1ccccc1C3=O [idarubicin, reference compound] |  |  |  |  |  |  |  |  |  |  | Agents with this profile include
